The results in this text go back to ChEMBL document CHEMBL1137176, “Structure-activity relationships of piperazinebenzylamines as potent and selective agonists of the human melanocortin-4 receptor” (Bioorg Med Chem Lett, 2004).

In test [1] the target is T1, Melanocortin receptor 4 (Homo sapiens, UniProt P32245). The experiment in a line: Effective concentration against cAMP release in CHO cells expressing human melanocortin-4 receptor. The format is functional, cell-based.
Test [2] has as its target T1, Melanocortin receptor 4. The experiment in a line: Displacement of [125I]NDP-MSH from HEK293 cells expressing human melanocortin-4 receptor. Format: cell-based. In general terms: Loss of bound radioactivity is the signal in a displacement assay; it reports binding, not function.
In a further test the target is Melanocortin receptor 5 (Homo sapiens, UniProt P33032). In words: Displacement of [125I]NDP-MSH from HEK293 cells expressing human melanocortin-5 receptor. The format is cell-based.
For test [3], the target named is T2, Melanocyte-stimulating hormone receptor (Homo sapiens, UniProt Q01726). In words: Displacement of [125I]NDP-MSH from human melanocortin-1 receptor expressed in HEK 293 cells at 10 uM. Format: cell-based. As to conditions: HEK293.
Target sequence in this assay (Q01726 whole entry, looked up): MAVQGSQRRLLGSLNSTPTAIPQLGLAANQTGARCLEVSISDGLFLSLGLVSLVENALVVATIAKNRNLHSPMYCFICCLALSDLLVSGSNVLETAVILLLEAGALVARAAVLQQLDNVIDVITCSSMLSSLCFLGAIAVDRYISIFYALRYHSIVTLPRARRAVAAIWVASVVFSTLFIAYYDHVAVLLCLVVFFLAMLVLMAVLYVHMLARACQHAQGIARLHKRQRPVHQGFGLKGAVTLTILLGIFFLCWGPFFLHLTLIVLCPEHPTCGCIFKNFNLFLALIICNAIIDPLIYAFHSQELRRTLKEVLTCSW
The target in test [4] is T2, Melanocyte-stimulating hormone receptor. In words: Displacement of [125I]NDP-MSH from HEK293 cells expressing human melanocortin-1 receptor. Format: cell-based.
Target sequence in this assay (Q01726 whole entry): as the sequence (Q01726 whole entry, looked up) above
Test [5] concerns the target T1, Melanocortin receptor 4. In words: Effective concentration for cAMP release in HEK293 cells expressing human melanocortin-4 receptor. Format: functional, cell-based.
In the next test the target is Melanocortin receptor 3 (Homo sapiens, UniProt P41968). The experiment in a line: Displacement of [125I]NDP-MSH from HEK293 cells expressing human melanocortin-3 receptor. The format is cell-based.
Test [6] addresses T1, Melanocortin receptor 4. In words: Percent intrinsic activity of alpha-MSH-stimulated cAMP level in HEK293 cells expressing human melanocortin-4 receptor. The format is functional, cell-based.

Melanocortin receptor 5, sequence (P33032 whole entry): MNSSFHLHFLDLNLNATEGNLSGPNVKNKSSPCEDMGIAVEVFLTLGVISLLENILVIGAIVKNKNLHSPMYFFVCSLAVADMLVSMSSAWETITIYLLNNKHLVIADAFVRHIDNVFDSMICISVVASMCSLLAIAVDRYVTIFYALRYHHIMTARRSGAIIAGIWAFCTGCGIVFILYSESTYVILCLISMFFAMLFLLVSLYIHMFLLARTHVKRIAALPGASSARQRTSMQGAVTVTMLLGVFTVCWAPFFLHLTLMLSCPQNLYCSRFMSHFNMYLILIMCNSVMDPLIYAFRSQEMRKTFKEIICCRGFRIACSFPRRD
Melanocortin receptor 3, sequence (P41968 whole entry): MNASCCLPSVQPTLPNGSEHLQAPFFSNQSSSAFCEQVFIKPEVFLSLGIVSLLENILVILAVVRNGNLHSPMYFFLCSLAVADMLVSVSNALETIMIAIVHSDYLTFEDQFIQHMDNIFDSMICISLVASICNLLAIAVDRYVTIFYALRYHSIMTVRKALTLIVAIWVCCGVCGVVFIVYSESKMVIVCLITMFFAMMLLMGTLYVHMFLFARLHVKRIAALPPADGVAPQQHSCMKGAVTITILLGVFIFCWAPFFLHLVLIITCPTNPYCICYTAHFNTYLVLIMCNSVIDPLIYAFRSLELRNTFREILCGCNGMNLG
T1 sequence (P32245 whole entry): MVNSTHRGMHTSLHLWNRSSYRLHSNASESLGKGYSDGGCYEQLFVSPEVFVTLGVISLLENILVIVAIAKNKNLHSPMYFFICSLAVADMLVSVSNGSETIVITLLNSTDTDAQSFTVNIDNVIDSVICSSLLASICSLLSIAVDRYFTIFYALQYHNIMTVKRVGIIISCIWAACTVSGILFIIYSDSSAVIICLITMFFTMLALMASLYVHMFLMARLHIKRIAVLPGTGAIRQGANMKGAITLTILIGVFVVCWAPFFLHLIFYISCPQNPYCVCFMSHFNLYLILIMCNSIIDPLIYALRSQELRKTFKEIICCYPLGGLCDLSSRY

As to `O=C(N[C@H](Cc1ccc(Cl)cc1)C(=O)N1CCN(c2ccccc2CN2CCN(c3ccccc3)CC2)CC1)[C@H]1Cc2ccccc2CN1`, a half-maximal effect at Melanocortin receptor 4 [1] (EC50) was put at 300 nM. Affinity on Melanocortin receptor 4 [2] was put at a Ki of 145 nM.

Turning to `NCCNCc1ccccc1N1CCN(C(=O)[C@@H](Cc2ccc(Cl)cc2)NC(=O)[C@H]2Cc3ccccc3CN2)CC1`, a half-maximal response at Melanocortin receptor 4 [1] (EC50) required 91 nM. This compound gave a Ki at Melanocortin receptor 4 [2] of 127 nM.

For the compound `CN(Cc1ccccc1)Cc1ccccc1N1CCN(C(=O)[C@@H](Cc2ccc(Cl)cc2)NC(=O)[C@H]2Cc3ccccc3CN2)CC1`, the half-maximal effective concentration (EC50) at Melanocortin receptor 4 [1] came to 632 nM. The Ki at Melanocortin receptor 4 [2] came to 84 nM.

In the case of `CC(NC1CC1)c1ccccc1N1CCN(C(=O)[C@@H](Cc2ccc(Cl)cc2)NC(=O)[C@H]2Cc3ccccc3CN2)CC1` (stereo partly drawn), on Melanocortin receptor 4 [1], a half-maximal effect (EC50) was put at 174 nM. The same compound yielded an inhibition constant Ki on Melanocortin receptor 4 [2] of 23 nM.

On Melanocortin receptor 4 [1], `CC(NC1CCCC1)c1ccccc1N1CCN(C(=O)[C@@H](Cc2ccc(Cl)cc2)NC(=O)[C@H]2Cc3ccccc3CN2)CC1` (stereo partly drawn) displayed an EC50 of 72 nM. On Melanocortin receptor 4 [2], this compound gave a Ki of 11 nM.

At Melanocortin receptor 5, `O=C(N[C@H](Cc1ccc(Cl)cc1)C(=O)N1CCC(Cn2cncn2)(C2CCCCC2)CC1)[C@H]1Cc2ccccc2CN1` gave a Ki of 860 nM.

`O=C(O)CCNCc1ccccc1N1CCN(C(=O)[C@@H](Cc2ccc(Cl)cc2)NC(=O)[C@H]2Cc3ccccc3CN2)CC1`: the EC50 at Melanocortin receptor 4 [1] was 90 nM. At Melanocortin receptor 4 [2], this compound registered an inhibition constant (Ki) of 490 nM.

With `CCN(CC)Cc1ccccc1N1CCN(C(=O)[C@@H](Cc2ccc(Cl)cc2)NC(=O)[C@H]2Cc3ccccc3CN2)CC1`, the concentration for a half-maximal effect (EC50) at Melanocortin receptor 4 [1] was determined as 240 nM. Further, the inhibition constant (Ki) on Melanocortin receptor 4 [2] was 52 nM.

On Melanocortin receptor 4 [1], `O=C(N[C@H](Cc1ccc(Cl)cc1)C(=O)N1CCN(c2ccccc2CNCCCO)CC1)[C@H]1Cc2ccccc2CN1` showed an EC50 of 36 nM. In addition, the affinity on Melanocortin receptor 4 [2], expressed as Ki, was 120 nM.

In turn, `O=C(N[C@H](Cc1ccc(Cl)cc1)C(=O)N1CCN(c2ccccc2Cn2cncn2)CC1)[C@H]1Cc2ccccc2CN1` yielded an inhibition in test [3] of 36%. This compound also had an EC50 on Melanocortin receptor 4 [1] of 110 nM. The results for the inhibitory constant (Ki) on Melanocortin receptor 5 and on Melanocortin receptor 4 [2] were 1200 nM and 270 nM, respectively.

Take `CN(CCc1ccccn1)Cc1ccccc1N1CCN(C(=O)[C@@H](Cc2ccc(Cl)cc2)NC(=O)[C@H]2Cc3ccccc3CN2)CC1`: on Melanocortin receptor 4 [1], the EC50 is 190 nM. The compound further yielded an inhibitory constant (Ki) at Melanocortin receptor 4 [2] of 35 nM.

`CC(N[C@H]1CCCCC1N)c1ccccc1N1CCN(C(=O)[C@@H](Cc2ccc(Cl)cc2)NC(=O)[C@H]2Cc3ccccc3CN2)CC1` (stereo partly drawn) registered an EC50 at Melanocortin receptor 4 [1] of 15 nM. For the same compound, the inhibition constant Ki on Melanocortin receptor 4 [2] was determined as 13 nM.

Compound `CN(Cc1cccnc1)Cc1ccccc1N1CCN(C(=O)[C@@H](Cc2ccc(Cl)cc2)NC(=O)[C@H]2Cc3ccccc3CN2)CC1` registered a concentration giving a half-maximal response (EC50) on Melanocortin receptor 4 [1] of 94 nM. At Melanocortin receptor 4 [2], this compound came in with a Ki of 77 nM.

In turn, `CC(NCCc1ccccc1F)c1ccccc1N1CCN(C(=O)[C@@H](Cc2ccc(Cl)cc2)NC(=O)[C@H]2Cc3ccccc3CN2)CC1` (stereo partly drawn) had a 50% effective concentration (EC50) on Melanocortin receptor 4 [1] of 2060 nM. For the same compound, at Melanocortin receptor 4 [2], the Ki was found to be 33 nM.

Consider `CC(NC1CCCNC1)c1ccccc1N1CCN(C(=O)[C@@H](Cc2ccc(Cl)cc2)NC(=O)[C@H]2Cc3ccccc3CN2)CC1` (stereo partly drawn), for which the Ki in test [4] is 1500 nM; at Melanocortin receptor 3 it was 2000 nM; on Melanocortin receptor 5, 270 nM; at Melanocortin receptor 4 [2], 6.4 nM. Further, the EC50 on Melanocortin receptor 4 [5] stood at 4.7 nM; at Melanocortin receptor 4 [1], 3.8 nM. On Melanocortin receptor 4 [6], this compound had an IA of 100%.

For the compound `O=C(N[C@H](Cc1ccc(Cl)cc1)C(=O)N1CCN(c2ccccc2CNCCc2ccccc2F)CC1)[C@H]1Cc2ccccc2CN1`, at Melanocortin receptor 4 [1], a half-maximal response (EC50) required 910 nM. Moreover, the Ki on Melanocortin receptor 3 is 2300 nM; at Melanocortin receptor 5 it was 260 nM; at Melanocortin receptor 4 [2], 27 nM.

For the compound `C[C@H]1CN(Cc2ccccc2N2CCN(C(=O)[C@@H](Cc3ccc(Cl)cc3)NC(=O)[C@H]3Cc4ccccc4CN3)CC2)[C@@H](C)CN1`, the concentration giving a half-maximal response (EC50) on Melanocortin receptor 4 [1] was found to be 18 nM. Moreover, on Melanocortin receptor 4 [2], the Ki was found to be 19 nM.

The compound `O=C(N[C@H](Cc1ccc(Cl)cc1)C(=O)N1CCN(c2ccccc2CNCC2CCNCC2)CC1)[C@H]1Cc2ccccc2CN1` had an EC50 at Melanocortin receptor 4 [1] of 208 nM. In addition, the affinity on Melanocortin receptor 4 [2] corresponds to a Ki of 102 nM.

On to `CCCC(=O)C1(C2CCCCC2)CCN(C(=O)[C@@H](Cc2ccc(Cl)cc2)NC(=O)[C@@H](Cc2ncc[nH]2)NC(=O)c2ccccc2)CC1`, for which, on Melanocortin receptor 4 [1], the EC50 was 2.9 nM. That is a single-digit nanomolar value.

In turn, `COCCN(C)Cc1ccccc1N1CCN(C(=O)[C@@H](Cc2ccc(Cl)cc2)NC(=O)[C@H]2Cc3ccccc3CN2)CC1` registered an EC50 at Melanocortin receptor 4 [1] of 51 nM. Also, the Ki at Melanocortin receptor 4 [2] stood at 49 nM.

In turn, `O=C(N[C@H](Cc1ccc(Cl)cc1)C(=O)N1CCN(c2ccccc2CNCc2ccco2)CC1)[C@H]1Cc2ccccc2CN1` had a concentration giving a half-maximal response (EC50) on Melanocortin receptor 4 [1] of 274 nM. Also, the Ki at Melanocortin receptor 4 [2] was 53 nM.

Compound `CC(NCc1ccco1)c1ccccc1N1CCN(C(=O)[C@@H](Cc2ccc(Cl)cc2)NC(=O)[C@H]2Cc3ccccc3CN2)CC1` (stereo partly drawn) displayed an EC50 at Melanocortin receptor 4 [1] of 138 nM. At Melanocortin receptor 4 [2], the affinity, expressed as Ki, was 12 nM.

In the case of `CC(NCCc1cccs1)c1ccccc1N1CCN(C(=O)[C@@H](Cc2ccc(Cl)cc2)NC(=O)[C@H]2Cc3ccccc3CN2)CC1` (stereo partly drawn), a half-maximal effect on Melanocortin receptor 4 [1] (EC50) was put at 577 nM. The same compound displayed an inhibition constant (Ki) at Melanocortin receptor 4 [2] of 24 nM.

Turning to `CN(CCO)Cc1ccccc1N1CCN(C(=O)[C@@H](Cc2ccc(Cl)cc2)NC(=O)[C@H]2Cc3ccccc3CN2)CC1`, the EC50 on Melanocortin receptor 4 [1] amounted to 40 nM. This compound yielded an inhibition constant (Ki) at Melanocortin receptor 4 [2] of 55 nM.

Take `O=C(N[C@H](Cc1ccc(Cl)cc1)C(=O)N1CCN(c2ccccc2CNCCc2cccs2)CC1)[C@H]1Cc2ccccc2CN1`: the Ki came to 6000 nM in test [4], 1800 nM at Melanocortin receptor 3 and 240 nM on Melanocortin receptor 5.

`NCc1ccccc1N1CCN(C(=O)[C@@H](Cc2ccc(Cl)cc2)NC(=O)[C@H]2Cc3ccccc3CN2)CC1` showed an EC50 on Melanocortin receptor 4 [1] of 274 nM. For the same compound, the Ki on Melanocortin receptor 5 is 2300 nM; on Melanocortin receptor 4 [2], 380 nM.

In the case of `CC(N[C@H]1CCNC1)c1ccccc1N1CCN(C(=O)[C@@H](Cc2ccc(Cl)cc2)NC(=O)[C@H]2Cc3ccccc3CN2)CC1` (stereo partly drawn), the Ki turned out to be 2100 nM in test [4], 3600 nM at Melanocortin receptor 3, 590 nM at Melanocortin receptor 5 and 13 nM on Melanocortin receptor 4 [2]. Further, a half-maximal response on Melanocortin receptor 4 [1] (EC50) required 12 nM.

Turning to `O=C(N[C@H](Cc1ccc(Cl)cc1)C(=O)N1CCN(c2ccccc2CNC2CCCC2)CC1)[C@H]1Cc2ccccc2CN1`, the 50% effective concentration (EC50) at Melanocortin receptor 4 [1] stood at 164 nM. This compound also came in with an inhibition constant (Ki) on Melanocortin receptor 4 [2] of 66 nM.

In turn, `O=C(N[C@H](Cc1ccc(Cl)cc1)C(=O)N1CCN(c2ccccc2CNC2CC2)CC1)[C@H]1Cc2ccccc2CN1` returned an EC50 on Melanocortin receptor 4 [1] of 253 nM. The compound further gave a Ki on Melanocortin receptor 4 [2] of 90 nM.

On Melanocortin receptor 4 [1], `O=C(N[C@H](Cc1ccc(Cl)cc1)C(=O)N1CCN(c2ccccc2CN2CCC(N3CCCC3)CC2)CC1)[C@H]1Cc2ccccc2CN1` showed an EC50 of 146 nM. Besides, the Ki at Melanocortin receptor 4 [2] is 24 nM.

On to `O=C(N[C@H](Cc1ccc(Cl)cc1)C(=O)N1CCN(c2ccccc2CNCCc2ccc(F)cc2)CC1)[C@H]1Cc2ccccc2CN1`, for which, at Melanocortin receptor 4 [1], the EC50 was 487 nM. The Ki on Melanocortin receptor 4 [2] was determined as 81 nM.

On Melanocortin receptor 4 [1], `CC(NC1CCC(N)CC1)c1ccccc1N1CCN(C(=O)[C@@H](Cc2ccc(Cl)cc2)NC(=O)[C@H]2Cc3ccccc3CN2)CC1` (stereo partly drawn) had an EC50 of 34 nM. Further, the affinity at Melanocortin receptor 4 [2] corresponds to a Ki of 25 nM.

Take `O=C(N[C@H](Cc1ccc(Cl)cc1)C(=O)N1CCN(c2ccccc2CNCCc2cccc(F)c2)CC1)[C@H]1Cc2ccccc2CN1`: a half-maximal response at Melanocortin receptor 4 [1] (EC50) required 460 nM. This compound gave an inhibition constant (Ki) at Melanocortin receptor 4 [2] of 14 nM.

A word on the EC50: it is the midpoint of the concentration-response curve. In general, Ki refers to the equilibrium dissociation constant of an inhibitor or competing ligand from its target. Low values mean tighter binding, high ones weaker binding. What is called inhibition is the drop in the measured response relative to a control, in per cent.
